Experimental data published in patent US6887712B1, “Methods and compositions to lower plasma cholesterol levels” (AtheroGenics, Inc., priority 1998, dated 2005).

Experiments:
plasma cholesterol = test: Plasma cholesterol lowering in hamsters; design: species or system hamster; settings: ability to lower plasma cholesterol in vivo in hamsters, yes/no
Description: The monosuccinic acid ester of probucol and several other compounds were tested in vitro in the immunoreactivity cell-free assay described above in Example 3 and in vivo in hamsters for their ability to lower plasma cholesterol.

[1] = target: T1, specific epitope on apoB-100 of LDL (Homo sapiens, UniProt P04114); test: Immunoreactivity cell-free sandwich ELISA: binding of LDL to capture anti-apoB monoclonal antibody; settings: for Cell-Free Assay: immunoreactivity cell-free assay of Example 3, yes/no
T1 construct: from tissue; host or cells: LDL particles (plasma lipoprotein)
T1 sequence (P04114 28-4563): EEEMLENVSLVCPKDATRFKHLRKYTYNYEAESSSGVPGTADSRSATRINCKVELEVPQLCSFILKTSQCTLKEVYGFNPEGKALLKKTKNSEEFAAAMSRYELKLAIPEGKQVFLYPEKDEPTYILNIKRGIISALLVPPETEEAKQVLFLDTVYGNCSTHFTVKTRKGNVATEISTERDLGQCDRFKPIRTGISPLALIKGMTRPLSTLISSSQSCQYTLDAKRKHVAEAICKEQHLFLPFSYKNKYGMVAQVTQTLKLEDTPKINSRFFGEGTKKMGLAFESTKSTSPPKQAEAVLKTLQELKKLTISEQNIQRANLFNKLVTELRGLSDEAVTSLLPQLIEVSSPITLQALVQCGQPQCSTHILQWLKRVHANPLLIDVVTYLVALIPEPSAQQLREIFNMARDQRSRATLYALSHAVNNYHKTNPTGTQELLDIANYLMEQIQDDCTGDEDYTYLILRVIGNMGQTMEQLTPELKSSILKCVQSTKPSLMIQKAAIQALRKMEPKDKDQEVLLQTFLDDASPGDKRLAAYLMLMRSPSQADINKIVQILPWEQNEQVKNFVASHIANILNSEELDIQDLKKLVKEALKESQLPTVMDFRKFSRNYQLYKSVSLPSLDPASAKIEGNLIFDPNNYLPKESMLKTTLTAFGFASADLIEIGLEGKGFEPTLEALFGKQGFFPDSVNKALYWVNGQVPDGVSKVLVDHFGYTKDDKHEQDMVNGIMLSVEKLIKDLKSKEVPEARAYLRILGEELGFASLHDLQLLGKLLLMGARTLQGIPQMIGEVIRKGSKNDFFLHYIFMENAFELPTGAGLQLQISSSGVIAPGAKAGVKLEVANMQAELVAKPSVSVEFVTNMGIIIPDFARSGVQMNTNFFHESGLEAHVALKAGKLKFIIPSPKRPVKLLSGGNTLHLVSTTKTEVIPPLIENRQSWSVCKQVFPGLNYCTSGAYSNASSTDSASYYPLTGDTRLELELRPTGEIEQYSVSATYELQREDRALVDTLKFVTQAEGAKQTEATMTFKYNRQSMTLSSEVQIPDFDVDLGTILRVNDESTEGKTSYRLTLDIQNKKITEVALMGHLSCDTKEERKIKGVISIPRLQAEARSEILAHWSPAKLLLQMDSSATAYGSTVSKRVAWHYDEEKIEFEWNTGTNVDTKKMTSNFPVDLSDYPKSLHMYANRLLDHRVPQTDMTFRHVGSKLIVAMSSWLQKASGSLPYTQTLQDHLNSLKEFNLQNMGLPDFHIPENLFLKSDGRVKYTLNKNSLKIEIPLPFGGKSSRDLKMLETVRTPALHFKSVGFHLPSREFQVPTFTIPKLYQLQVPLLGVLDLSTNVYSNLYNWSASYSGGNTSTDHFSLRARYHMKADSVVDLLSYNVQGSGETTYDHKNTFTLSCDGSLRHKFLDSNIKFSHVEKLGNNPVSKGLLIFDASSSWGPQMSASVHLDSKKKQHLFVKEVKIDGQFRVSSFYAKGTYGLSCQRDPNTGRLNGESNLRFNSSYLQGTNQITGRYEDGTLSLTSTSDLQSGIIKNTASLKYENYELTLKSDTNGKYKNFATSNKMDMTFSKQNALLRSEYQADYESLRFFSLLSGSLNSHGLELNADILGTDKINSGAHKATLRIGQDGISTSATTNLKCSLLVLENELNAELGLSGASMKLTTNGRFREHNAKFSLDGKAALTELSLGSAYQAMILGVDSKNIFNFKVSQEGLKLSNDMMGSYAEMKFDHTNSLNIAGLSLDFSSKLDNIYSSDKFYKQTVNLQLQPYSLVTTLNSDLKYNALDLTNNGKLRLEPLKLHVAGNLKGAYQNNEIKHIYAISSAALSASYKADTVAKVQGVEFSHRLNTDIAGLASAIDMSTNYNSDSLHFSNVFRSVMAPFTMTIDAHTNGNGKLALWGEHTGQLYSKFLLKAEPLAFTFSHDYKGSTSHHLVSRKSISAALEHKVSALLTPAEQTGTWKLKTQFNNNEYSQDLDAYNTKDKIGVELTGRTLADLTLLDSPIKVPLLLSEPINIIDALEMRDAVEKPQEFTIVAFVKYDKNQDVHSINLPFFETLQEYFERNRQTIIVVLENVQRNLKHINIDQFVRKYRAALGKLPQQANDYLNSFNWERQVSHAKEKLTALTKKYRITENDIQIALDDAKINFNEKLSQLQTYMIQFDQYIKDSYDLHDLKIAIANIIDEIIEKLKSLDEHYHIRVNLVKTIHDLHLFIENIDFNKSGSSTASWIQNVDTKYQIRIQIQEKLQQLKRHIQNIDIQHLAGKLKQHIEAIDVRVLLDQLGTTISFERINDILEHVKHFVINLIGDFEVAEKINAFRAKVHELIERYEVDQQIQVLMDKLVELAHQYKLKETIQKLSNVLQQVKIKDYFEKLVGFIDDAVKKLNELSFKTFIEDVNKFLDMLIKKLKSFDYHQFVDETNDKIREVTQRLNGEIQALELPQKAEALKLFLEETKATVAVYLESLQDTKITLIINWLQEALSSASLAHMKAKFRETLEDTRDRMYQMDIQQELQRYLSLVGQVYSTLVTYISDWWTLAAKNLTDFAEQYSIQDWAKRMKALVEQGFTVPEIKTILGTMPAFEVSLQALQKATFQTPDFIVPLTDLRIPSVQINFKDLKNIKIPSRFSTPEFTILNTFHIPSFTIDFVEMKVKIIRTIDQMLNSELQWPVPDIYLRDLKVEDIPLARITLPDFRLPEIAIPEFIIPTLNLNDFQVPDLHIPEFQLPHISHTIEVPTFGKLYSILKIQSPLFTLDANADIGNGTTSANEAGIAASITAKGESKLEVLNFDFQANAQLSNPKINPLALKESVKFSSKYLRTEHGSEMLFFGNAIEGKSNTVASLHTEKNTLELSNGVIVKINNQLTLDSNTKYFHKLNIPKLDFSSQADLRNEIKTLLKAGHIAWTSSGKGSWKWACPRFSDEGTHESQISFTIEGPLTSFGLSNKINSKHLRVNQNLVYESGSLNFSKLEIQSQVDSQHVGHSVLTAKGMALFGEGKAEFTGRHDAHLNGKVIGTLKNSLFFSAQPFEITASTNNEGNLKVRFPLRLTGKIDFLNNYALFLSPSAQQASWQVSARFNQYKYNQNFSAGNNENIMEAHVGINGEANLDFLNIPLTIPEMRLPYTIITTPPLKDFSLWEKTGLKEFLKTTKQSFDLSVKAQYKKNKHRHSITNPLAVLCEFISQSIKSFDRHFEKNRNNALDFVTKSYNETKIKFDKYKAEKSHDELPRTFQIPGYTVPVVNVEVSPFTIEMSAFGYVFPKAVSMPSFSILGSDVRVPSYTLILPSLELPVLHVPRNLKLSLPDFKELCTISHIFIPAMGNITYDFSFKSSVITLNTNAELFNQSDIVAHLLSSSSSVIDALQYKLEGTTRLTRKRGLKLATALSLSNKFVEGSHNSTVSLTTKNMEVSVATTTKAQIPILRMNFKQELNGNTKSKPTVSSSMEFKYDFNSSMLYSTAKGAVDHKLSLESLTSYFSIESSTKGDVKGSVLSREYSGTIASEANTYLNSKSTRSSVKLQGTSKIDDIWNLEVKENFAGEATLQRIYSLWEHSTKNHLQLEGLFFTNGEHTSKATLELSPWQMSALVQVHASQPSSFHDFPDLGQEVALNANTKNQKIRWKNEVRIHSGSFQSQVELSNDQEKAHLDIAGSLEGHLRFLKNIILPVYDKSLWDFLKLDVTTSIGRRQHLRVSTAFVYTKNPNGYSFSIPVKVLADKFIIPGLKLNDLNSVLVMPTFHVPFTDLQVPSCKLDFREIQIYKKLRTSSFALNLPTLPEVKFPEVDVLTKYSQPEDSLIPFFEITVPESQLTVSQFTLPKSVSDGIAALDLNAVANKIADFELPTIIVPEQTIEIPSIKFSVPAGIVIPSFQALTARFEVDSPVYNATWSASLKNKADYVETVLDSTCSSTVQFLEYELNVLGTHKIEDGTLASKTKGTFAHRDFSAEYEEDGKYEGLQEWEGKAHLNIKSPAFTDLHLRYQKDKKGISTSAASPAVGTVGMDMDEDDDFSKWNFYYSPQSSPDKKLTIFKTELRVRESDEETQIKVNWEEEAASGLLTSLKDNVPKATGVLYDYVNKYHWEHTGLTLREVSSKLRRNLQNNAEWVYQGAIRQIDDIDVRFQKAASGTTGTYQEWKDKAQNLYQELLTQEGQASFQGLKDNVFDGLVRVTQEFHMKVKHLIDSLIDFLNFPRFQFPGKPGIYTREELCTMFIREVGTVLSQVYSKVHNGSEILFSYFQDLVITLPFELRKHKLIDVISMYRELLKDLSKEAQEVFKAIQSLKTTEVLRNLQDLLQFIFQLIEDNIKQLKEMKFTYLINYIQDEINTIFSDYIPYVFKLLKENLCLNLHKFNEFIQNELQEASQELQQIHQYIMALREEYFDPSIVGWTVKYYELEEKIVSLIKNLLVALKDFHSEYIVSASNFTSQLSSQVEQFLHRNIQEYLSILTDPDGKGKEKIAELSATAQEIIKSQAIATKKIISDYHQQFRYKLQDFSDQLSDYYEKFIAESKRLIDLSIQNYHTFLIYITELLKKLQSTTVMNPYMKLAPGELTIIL
Source text: To determine if the binding of the monosuccinic acid ester to VLDL and LDL can cause a change in the structure of apoB-100, an immunoreactivity assay was designed. This is a sandwich ELISA assay which measures the expression of a specific epitope on apoB-100. Essentially the sandwich ELISA consists of a specific monoclonal antibody directed to that epitope on apoB-100 as a capture antibody laid onto a microtitre plate. […] A second polyclonal antibody is then used to quantify the amount of LDL captured.
The detailed immunoreactivity protocol is as follows. A nunc maxi-sorp microtiter plate is coated overnight at 4° C. with 100 μl of Anti-Human ApoB monoclonal antibody from Boehringer Mannheim (catalog # 1533 975) diluted 1:1000 in PBS pH 7.4. The compounds are dissolved in DMSO with appropriate concentration of LDL for 15 minutes and incubated at 37° C.
The coated microtiter plate is washed three times with 200 μl PBS/0.05% tween, and a sample of 100 μl LDL/Compound or LDL standard is added to each well. The plates are then incubated for 2 hours at room temperature.
The microtiter plate is washed three times with 200 μl PBS/0.05% tween, and 100 μl of 1:2000 Polyclonal Human Anti-ApolipoproteinB from Boehringer Mannheim (catalog # 726 494) in PBS/tween 0.05% is added. The plate is incubated for one hour at room temperature.
The microtiter plate is washed three times with 200 ul PBS/0.05% tween, and 100 μl of 1:2000 Anti-Sheep Ig peroxidase from Boehringer Mannheim (catalog # 605 345) in PBS/05% tween is added. The plate is incubated for one hour at room temperature.
The microtiter plate is washed three times with 200 ul PBS/0.05% tween, and 100 μl of TMB substrate is added and incubated for 5-10 minutes in the dark. The reaction is stopped with 15 μl 8N H2SO4 and read on the Bio-Rad Microplate plate reader at 450 nm within 30 minutes.

total plasma cholesterol = test: Cholesterol lowering in mice lacking functional LDL receptors; assay type: in vivo, mouse; settings: LDL receptor-deficient mice, 150 mg/kg/day oral with high fat/high cholesterol diet, 12 weeks
Description: To explore whether the enhanced clearance is mediated by the tissue LDL receptors, the major clearance mechanism for LDL in the body, the LDL lowering activity of the monosuccinic acid ester of probucol was tested in a mouse model that lacks functional LDL receptors (eliminated through genetic engineering).

[2] = test system: LDL cholesterol, HDL, plasma triglycerides; settings: human, in vivo; cited from earlier work
purified human LDL = target: T2, purified human LDL (Homo sapiens, UniProt P04114); test: Agarose electrophoresis of purified human LDL mixed with compound; assay type: binding
T2 construct: from tissue; host or cells: human LDL particles (plasma lipoprotein)
T2 sequence (P04114 28-4563): as above
Description: Agarose electrophoresis is a technique used to separate and study lipoproteins. The monosuccinic acid ester of probucol was added to purified human LDL and the mixture was run on agarose electrophoresis.

VLDL and LDL clearance = test: Lipoprotein turnover study in monkeys (stable isotope labelling of apoB-100); assay type: in vivo, monkey; settings: no species or dose stated
Description: A lipoprotein turnover study was performed in monkeys that were dosed with the monosuccinic acid ester of probucol (25 mg/kg/day for one four weeks). The clearance rates of VLDL and LDL were examined before and after treatment of the animals using a stable isotope technique to label apoB-100 in VLDL and LDL.

Row | Cell-Free Assay [1] | Compound | Hamster (plasma cholesterol) | other results
1 | yes | CN(C)C(=O)Cc1ccc(CSc2cc(C(C)(C)C)c(O)c(C(C)(C)C)c2)cc1 [N,N-dimethyl-4-[(3,5-di-tert-butyl-4-hydroxyphenylthio)methyl]phenylacetamide] | yes | –
2 | yes | Mono[4-(3,5-di-tert-butyl-4-hydroxyphenacylthio)-2,6-di-tert-butylphenyl] succinate | no | –
3 | – | vitamin E [reference compound] | – | effect on binding of LDL to the capture monoclonal antibody (FIG. 6a) [1]: no significant effect
4 | – | O=C(O)CCC(=O)O [succinate, reference compound] | – | effect on binding of LDL to the capture monoclonal antibody (FIG. 6a) [1]: no significant effect
5 | no | Mono[4-(3,5-di-tert-butyl-4-hydroxybenzyl)-2,6-di-tert-butylphenyl]glutarate | no | –
6 | – | CC(C)(Sc1cc(C(C)(C)C)c(O)c(C(C)(C)C)c1)Sc1cc(C(C)(C)C)c(O)c(C(C)(C)C)c1 [probucol, 4,4′-(isopropylidenedithio) bis(2,6-di-tert-butylphenol), reference compound] | – | lowering of plasma cholesterol (total plasma cholesterol): 17%; effect on plasma triglycerides [2]: no effect; shift of electrophoretic mobility of LDL (purified human LDL): did not shift the mobility of LDL; effect on binding of LDL to the capture monoclonal antibody (FIG. 6a) [1]: no significant effect; effect on clearance of VLDL (general statement) (VLDL and LDL clearance): little effect
7 | no | CCCN(CCC)C(=O)c1ccc(CSc2cc(C(C)(C)C)c(O)c(C(C)(C)C)c2)cc1 [N,N-dipropyl-4-[(3,5-di-tert-butyl-4-hydroxyphenylthio)methyl]benzamide] | no | –
8 | no | CC(C)(C)c1cc(SCc2ccc(F)cc2)cc(C(C)(C)C)c1O [2,6-di-tert-butyl-4-[(4-fluorobenzyl)thio]phenol] | no | –
9 | no | CN(C)C(=O)c1ccc(CSc2cc(C(C)(C)C)c(O)c(C(C)(C)C)c2)cc1 [N,N-dimethyl-4-[(3,5-di-tert-butyl-4-hydroxyphenylthio)methyl]benzamide] | yes | –
10 | yes | Mono[4-(3,5-di-tert-butyl-4-hydroxybenzyl)2,6-di-tert-butylphenyl] succinate | no | –
11 | yes | COC(=O)c1ccc(CSc2cc(C(C)(C)C)c(O)c(C(C)(C)C)c2)o1 [Methyl 5-(3,5-id-tert-butyl-4-hydroxyphenylthio)methyl-2-furoate] | yes | –
12 | no | CC(C)(C)c1cc(SCC(=O)c2ccc([N+](=O)[O-])cc2)cc(C(C)(C)C)c1O [α-(3,5-di-tert-butyl-4-hydroxyphenylthio)-4-nitro-acetophenone] | yes | –
13 | yes | CC(C)(Sc1cc(C(C)(C)C)c(O)c(C(C)(C)C)c1)Sc1cc(C(C)(C)C)c(OC(=O)CCCC(=O)O)c(C(C)(C)C)c1 [pentanedioic acid, mono[4-[[1-[3,5-bis(1,1-dimethylethyl)-4-hydroxyphenyl]thio]1-methylethyl]thio-2,6-bis(1,1-dimethylethyl)phenyl]ester] | yes | –
14 | – | Cc1c(C)c2c(c(C)c1OC(=O)CCC(=O)O)CC[C@@](C)(CCC[C@H](C)CCC[C@H](C)CCCC(C)C)O2 [vitamin E succinate, reference compound] | – | effect on binding of LDL to the capture monoclonal antibody (FIG. 6a) [1]: increased the binding of LDL
15 | no | CC(C)(C)c1cc(SCc2ccc(F)cc2C(F)(F)F)cc(C(C)(C)C)c1O [2,6-di-tert-butyl-4-[4-fluoro-2-(trifluoromethyl)benzylthio]phenol] | no | –
16 | yes | CC(C)(Sc1cc(C(C)(C)C)c(O)c(C(C)(C)C)c1)Sc1cc(C(C)(C)C)c(OCC(O)C(O)C(O)C(=O)O)c(C(C)(C)C)c1 (stereo not shown) [5-[4-[[1-[[3,5-bis(1,1-dimethylethyl)-4-hydroxyphenyl)thio]-1-methylethyl]thioo-2,6-bis(1,1-dimethylethyl)phenoxy-2,3,4-trihydroxy-pentanoic acid] | no | –
17 | yes | CC(C)(C)c1cc(SCc2ccc(OC(=O)c3ccccc3)cc2)cc(C(C)(C)C)c1O [4-[(3,5-di-tert-butyl-4-hydroxyphenylthio)methyl]phenyl benzoate] | yes | –

Row | Compound | Cell-Free Assay [1] | Hamster (plasma cholesterol) | other results
18 | CC(C)(C)c1cc(SCc2cccc(C(F)(F)F)c2)cc(C(C)(C)C)c1O [2,6-di-tert-butyl-4-[(3-trifluoromethyl)benzylthio]phenol] | no | yes | –
19 | CC(C)(C)c1cc(SCc2ccc(CCO)cc2)cc(C(C)(C)C)c1O [2,6-di-tert-butyl-4-thio-(4′-(methyl)phenylethyl alcohol))phenol] | yes | yes | –
20 | CC(C)(C)c1cc(SCc2ccc([N+](=O)[O-])cc2[N+](=O)[O-])cc(C(C)(C)C)c1O [2,6-di-tert-butyl-4-[(2,4-dinitrobenzyl)thio]phenol] | no | no | –
21 | CC(C)(C)c1cc(SCc2ccc(C(F)(F)F)cc2)cc(C(C)(C)C)c1O [2,6-di-tert-butyl-4-thio-(4′-(trifluoromethyl)benzyl) phenol] | yes | yes | –
22 | CCN(CC)S(=O)(=O)c1ccc(CSc2cc(C(C)(C)C)c(O)c(C(C)(C)C)c2)cc1 [N,N-diethyl-4-[3,5-di-tert-butyl-4-hydroxyphenylthio)methyl]benzene-sulfonamide] | no | no | –
23 | CN(C)S(=O)(=O)c1ccc(CSc2cc(C(C)(C)C)c(O)c(C(C)(C)C)c2)cc1 [2,6-di-tert-butyl-4-thio-(4′-methyl-N,N-dimethylbenzenesulfonamide) phenol] | yes | yes | –
24 | CC(C)(C)c1cc(SCc2cccc(OC(F)(F)F)c2)cc(C(C)(C)C)c1O [2,6-di-tert-butyl-4-[(3-trifluoromethoxy)benzylthio]phenol] | no | no | –
25 | CC(C)(Sc1cc(C(C)(C)C)c(O)c(C(C)(C)C)c1)Sc1cc(C(C)(C)C)c(OCC(O)C(O)C(O)C(O)CO)c(C(C)(C)C)c1 (stereo not shown) [probucol-2,3,4,5,6-pentahydroxyhexyl ether] | yes | yes | –
26 | CC(C)(Sc1cc(C(C)(C)C)c(O)c(C(C)(C)C)c1)Sc1cc(C(C)(C)C)c(OC[C@@H](O)[C@@H](O)[C@H](O)[C@@H](O)C=O)c(C(C)(C)C)c1 [6-deoxy-6-(probucol-1-yl)-D-glucose] | yes | yes | –
